The values that follow come from patent US11318110B2, “Pharmaceutical composition for reducing local fat and uses thereof” (Caliway Biopharmaceuticals Co., Ltd., priority 2015, dated 2022).

Data set [1] deals with mature adipocytes (differentiated 3T3-L1 cells). Briefly: Apoptosis of mature adipocytes, annexin V/PI flow cytometry (Experiment 8-2). The format is cell-based. The following applies: 50 ppm total drug (complexes: 20 ppm curcumin + 30 ppm second drug), 24 hours; DMSO control 0.8±0.2%. The text has this:
The curcumin cell culture medium: curcumin was mixed with an appropriate amount of 0.5% DMSO solution to obtain a curcumin solution. The curcumin solution was mixed with a cell culture medium (product name: Dulbecco's Modified Eagle Medium, purchased from Gibco) to prepare the curcumin cell culture medium containing 50 ppm of curcumin, wherein, the volume ratio between the curcumin solution and the cell culture medium was 1:1000. The puerarin cell culture medium: puerarin (purchased from Sigma-Aldrich) was mixed with an appropriate amount of 0.5% DMSO solution to obtain a puerarin solution. The puerarin solution was mixed with a cell culture medium to prepare the puerarin cell culture medium containing 50 ppm of puerarin, wherein, the volume ratio between the puerarin solution and the cell culture medium is 1:1000. The quercetin cell culture medium: quercetin (purchased from Sigma-Aldrich) was mixed with an appropriate amount of 0.5% DMSO solution to obtain a quercetin solution. The quercetin solution was mixed with a cell culture medium to prepare the quercetin cell culture medium containing 50 ppm of quercetin, wherein, the volume ratio between the quercetin solution and the cell culture medium was 1:1000. The synephrine cell culture medium: synephrine (purchased from Sigma-Aldrich) was mixed with an appropriate amount of 0.5% DMSO solution to obtain a synephrine solution. The synephrine solution was mixed with a cell culture medium to prepare the synephrine cell culture medium containing 50 ppm of synephrine, wherein, the volume ratio between the synephrine solution and the cell culture medium was 1:1000. The curcumin-puerarin complex cell culture medium: curcumin and puerarin were mixed with an appropriate amount of 0.5% DMSO solution to obtain a curcumin-puerarin complex solution. […] The curcumin-quercetin complex cell culture medium: curcumin and quercetin were mixed with an appropriate amount of 0.5% DMSO solution to obtain a curcumin-quercetin complex solution. […] Experimental procedure to determine the lipolysis efficacy on mature adipocytes The adipocyte precursors 3T3-L1 cells (purchased from the Food Industry Research and Development Institute, Taiwan; abbreviated as BCRC) were seeded in 12-well plates, such that each well contained 1×10^5 cells. […] Annexin V protein (purchased from eBioscience) and propidium iodide (PI; purchased from eBioscience) were mixed with the cells in each group for a period of time, and then the percentage of cells labeled by annexin V protein and PI in each group was analyzed by flow cytometry to assess the percentage of mature adipocytes undergoing apoptosis. […] The data were presented as mean±SD and analyzed by one-way ANOVA. […]

For data set [2] the test system is unchanged. Briefly: Apoptosis of mature adipocytes, annexin V/PI flow cytometry (Experiment 10-2). Type of data set: cell-based. The following applies: 50 ppm total drug (complexes: 20 ppm curcumin + 30 ppm hydrophilic drug), 24 hours; sterile water control 0.8±0.4%. The text has this:
The curcumin cell culture medium: same as the preparation of the curcumin cell culture medium in Experiment 8-2. […] Caffeine (purchased from Sigma-Aldrich) was mixed with an appropriate amount of sterile water to obtain a caffeine solution. The caffeine solution was mixed with a cell culture medium to prepare the caffeine cell culture medium containing 50 ppm of caffeine. Wherein, the volume ratio of the caffeine cell culture medium and the cell culture medium was 1:1000. The L-carnitine cell culture medium: L-carnitine (purchased from Sigma-Aldrich) was mixed with an appropriate amount of sterile water to obtain a L-carnitine solution. The L-carnitine solution was mixed with a cell culture medium to prepare the caffeine cell culture medium containing 50 ppm of L-carnitine. Wherein, the volume ratio of the L-carnitine cell culture medium and the cell culture medium was 1:1000. The curcumin-caffeine complex cell culture medium: Curcumin and caffeine were mixed with an appropriate amount of sterile water to prepare a curcumin-caffeine complex solution. […] Wherein, the concentration of curcumin was 20 ppm, the concentration of caffeine was 30 ppm, and the volume ratio of the curcumin-caffeine complex solution and the cell culture medium was 1:1000. The curcumin-L-carnitine complex cell culture medium: Curcumin and L-carnitine were mixed with an appropriate amount of sterile water to prepare a curcumin-L-carnitine complex solution. […] Wherein, the concentration of curcumin was 20 ppm, the concentration of L-carnitine was 30 ppm, and the volume ratio of the curcumin-L-carnitine complex solution and the cell culture medium was 1:1000. […] Annexin V protein (purchased from eBioscience) and propidium iodide (PI; purchased from eBioscience) were mixed with the cells in each group for a period of time, and then the percentage of cells labeled by annexin V protein and PI in each group was analyzed by flow cytometry to assess the percentage of mature adipocytes undergoing apoptosis.

In data set [3] the test system is rat somatic cells except adipocytes. Put plainly: Cytotoxicity test by MTT assay (Experiment 10-1). Type of data set: cell-based. Particulars: 50 ppm. The text has this:
Determine if 50 ppm of caffeine and L-carnitine have toxicity to cells other than adipocytes by MTT assay. Only if the drug is deemed non-toxic will lipolysis test be proceeded.

The test system of data set [4] is lower inguinal subcutaneous fat of rats. Put plainly: Administered dosage of curcumin-resveratrol complex composition, localized subcutaneous fat of rats (Experiment 7-5). The format is in vivo. Particulars: 0.04 μg/kg injected on days 1-4; 14-day experiment; high-fat diet control 100±15.2%. How it is done: LIPO-202 is a local lipolysis injection formulation currently undergoing clinical trials, and its main ingredient is salmeterol xinafonate. • (i) 1 mg of salmeterol xinafonate (purchased from Sigma-Aldrich) was mixed with an appropriate amount of methanol to a total volume of 1 mL to obtain a 1 mg/mL stock solution. • (ii) The stock solution was 10-fold serial diluted with sterile water to prepare a salmeterol xinafonate solution of a final concentration of 0.01 μg/mL, which is the LIPO-202 solution used in this experiment. same as the preparation of the curcumin-resveratrol complex solution comprising ELP described in Experiment 7-2. […] The rats were fed in the same manner described in Experiment 2. […] The LIPO-202 solution was injected to the lower inguinal subcutaneous fat layer of rats in the LIPO-202 group. […] The 1 mg/mL complex formula group: […] The 5 mg/mL complex formula group: The curcumin-resveratrol complex pharmaceutical composition was injected to the lower inguinal subcutaneous fat layer of rats in the 5 mg/mL complex formula group. […] The 10 mg/mL complex formula group: […] The 20 mg/mL complex formula group: […] Rats were injected once a day on day 1, 2, 3, and 4 of the experiment. The rats were fed with high-fat diet for the entire duration of the experiment. The experiment lasted for 14 days, and the rats were euthanized on day 15 by CO2.

For data set [5] the test system is unchanged. Put plainly: Dosing frequency of curcumin-resveratrol complex composition, localized subcutaneous fat of rats (Experiment 7-4). Type of data set: in vivo. The following applies: 10.3 mg/kg on days 1, 3, 5 (total 30.9 mg/kg); 20-day experiment; control 100.0±22.6%. How it is done: (§1) Preparation of the sodium deoxycholate solution: An appropriate amount of sodium deoxycholate was mixed with sterile water for injection to make the concentration of sodium deoxycholate 2.575 mg/mL. The solution was mixed well to obtain the sodium deoxycholate solution. Wherein, sodium deoxycholate (purchased from Sigma-Aldrich, cat #D6750) is the main ingredient of the local lipolysis injection formulation ATX-101 (brand name: KYBELLA®) in the market.
(§2) Preparation of the curcumin-resveratrol complex pharmaceutical composition: same as the preparation of the curcumin-resveratrol complex solution comprising ELP described in Experiment 7-2. Wherein, the total concentration of curcumin and resveratrol was 5 mg/mL, and the ratio of curcumin to resveratrol was 4:1.
(§3) The rats were randomly assigned into 4 groups, which were a high-fat diet control group, a sodium deoxycholate group, a high-dosing frequency curcumin-resveratrol group (abbreviated as high-dosing frequency group in this experiment), and a low-dosing frequency curcumin-resveratrol group (abbreviated as low-dosing frequency group in this experiment). The rats were fed in the same manner described in Experiment 2.
(§4) The sodium deoxycholate group: The sodium deoxycholate solution was injected to the lower inguinal subcutaneous fat layer of rats in the sodium deoxycholate group. […]

The nature of data set [6]: Dosing frequency of curcumin-resveratrol complex composition, body weight gain of rats (Experiment 7-4). Type of data set: in vivo. Particulars: 10.3 mg/kg on days 1, 3, 5 (total 30.9 mg/kg); control 100.0±11.6%. How it is done: as §1, §2, §3, §4
Data set [7] deals with lower inguinal subcutaneous fat of rats. Put plainly: Dosing frequency of curcumin-green tea extract complex composition, localized subcutaneous fat of rats (Experiment 9-2). The following applies: 10.3 mg/kg on days 1, 3, 5 (total 30.9 mg/kg); 20-day experiment; control 100.0±22.6%. The format is in vivo. How it is done:
(§5) Preparation of the sodium deoxycholate solution: same as the preparation of the sodium deoxycholate solution in Experiment 7-4.
(§6) Preparation of the curcumin-green tea extract complex pharmaceutical composition: 0.8 g of curcumin was mixed with 150˜200 mL of dichloromethane and stirred at 150˜500 rpm to completely dissolve curcumin. 40 g of KOLLIPHOR® ELP (also known as CREMOPHOR® ELP, polyoxyl 35 castor oil, abbreviated as ELP) was added and stirred at 100˜300 rpm to volatilize dichloromethane. Once dichloromethane volatilized completely, normal saline for injection was slowly added to a total volume of 200 mL. Wherein, the normal saline for injection comprised 0.2 g of green tea extract. The solution was mixed well to obtain the curcumin-green tea extract complex solution comprising ELP. Said curcumin-green tea extract complex solution comprising ELP comprised drug-containing micelles, the total concentration of curcumin and green tea was 5 mg/mL, and the weight ratio of curcumin and green tea extract was 4:1
(§7) The rats were randomly assigned into 4 groups, which were a high-fat diet control group, a sodium deoxycholate group, a high-dosing frequency curcumin-green tea extract group (abbreviated as high-dosing frequency group in this experiment), and a low-dosing frequency curcumin-green tea extract group (abbreviated as low-dosing frequency group). […]

Data set [8] is described as follows: Dosing frequency of curcumin-green tea extract complex composition, body weight gain of rats (Experiment 9-2). The format is in vivo. Particulars: 10.3 mg/kg on days 1, 3, 5 (total 30.9 mg/kg); control 100.0±11.6%. How it is done: as §5, §6, §7

Consider `COc1cc(/C=C/C(=O)CC(=O)/C=C/c2ccc(O)c(OC)c2)ccc1O` [curcumin], for which the “percentage of apoptotic cells” value in data set [1] and in data set [2] was 78.4±5.4% in each case.
In the case of `C[N+](C)(C)C[C@H](O)CC(=O)[O-]` [L-carnitine], in data set [3], the “cytotoxicity (MTT assay)” value is listed as “not cytotoxic”. In addition, in data set [2], the “percentage of apoptotic cells” value was determined as 1.7±0.5%.
Regarding `O=c1c(O)c(-c2ccc(O)c(O)c2)oc2cc(O)cc(O)c12` [quercetin], the “percentage of apoptotic cells” value in data set [1] was 1.8±0.6%.
The same measure, in the same setting: the value for `CNCC(O)c1ccc(O)cc1` (centres unmarked) [synephrine] was 0.9±0.2%.
On to `OCc1cc(C(O)CNCCCCCCOCCCCc2ccccc2)ccc1O` (centres unmarked) [LIPO-202, salmeterol xinafonate], for which the “relative weight of the lower inguinal subcutaneous fat” value in data set [4] worked out at 97.8±12.8%.
For the compound `O=c1c(-c2ccc(O)cc2)coc2c([C@@H]3O[C@H](CO)[C@@H](O)[C@H](O)[C@H]3O)c(O)ccc12` [puerarin], in data set [1], the “percentage of apoptotic cells” value came to 2.0±1.6%.
With sodium deoxycholate, the “relative weight of the lower inguinal subcutaneous fat” value in data set [5] and in data set [7] was 88.8±16.7% in each case. In addition, the relative weight gain in data set [6] and in data set [8] was 100.2±12.6% each time.
Turning to `Cn1c(=O)c2c(ncn2C)n(C)c1=O` [caffeine], in data set [3], the “cytotoxicity (MTT assay)” value is “not cytotoxic”. In data set [2], the “percentage of apoptotic cells” value stood at 2.0±1.7%.
